Measured values as given in patent US20130096170A1 (priority 2011, published 2013).
Read-outs that look alike come from different tables or passages of the source.

Key:
clinical = settings: human, in vivo
[1] = cited from earlier work
[2] = for CL, Predicted Typical Value / Volume of Distribution, Predicted Typical Value / Weight-Adjusted CL, Predicted Typical Value / Weight-Adjusted V, Predicted Typical Value: model-predicted
[3] = final population PK model, Examples 5, 3, 1 and 7

Work on `Cc1cccc([C@H](C)c2cnc[nH]2)c1C` [dexmedetomidine] yielded a clearance (clinical; Cl Mean) of 171 mL/min, a clearance (clinical; Cl Median) of 162 mL/min and a Vd (clinical; Vd Mean) of 30.5 L. The Vd (clinical; Vd Median) was 29.1 L, the half-life (clinical; apparent (mean) t1/2) was 2.33 h and the half-life (clinical; t1/2, Mean) was 2.33 h. For the same compound, the half-life (clinical; t1/2 Median) was 1.87 h, the pKa [1] was 7 and the solubility in water [1] was “freely soluble in water”. The “pH of the isotonic solution” value ([1]; study drug as supplied) was 4.5, the “Magnitude of Interindividual Variability in Vc, final estimate” value ([2]; final population PK model) was 53.76 % CV and the “Exponent for power function effect of age on Q (population mean)” value [2, 3] was −0.342. For the same compound, the “Exponent for power function effect of age on Vp (population mean)” value [2, 3] was −0.280, the “Inter-compartmental CL (Q) (population mean)” value [2, 3] was 63.5 L/h and the “Vc, volume of the central compartment (population mean)” value [2, 3] was 8.49 L. For the same compound, the “Vp, volume of the peripheral compartment (population mean)” value [2, 3] was 14.7 L, the “Magnitude of Interindividual Variability in CL, final estimate” value ([2]; final population PK model, cell spans CL rows) was 37.01 % CV and the “Magnitude of Interindividual Variability in Q, final estimate” value ([2]; final population PK model, cell spans Q rows) was 161.25 % CV. The “Magnitude of Interindividual Variability in Vp, final estimate” value ([2]; final population PK model, cell spans Vp rows) was 51.19 % CV, the “CL, Predicted Typical Value” ([2]; 1 month-<6 months) was 7.51 L/h and the “Volume of Distribution, Predicted Typical Value” (“Volume … Predicted Typical Value” for short) ([2]; 1 month-<6 months) was 18.75 L. The “Weight-Adjusted CL, Predicted Typical Value” ([2]; 1 month-<6 months) was 20.9 mL/min/kg, the “Weight-Adjusted V, Predicted Typical Value” ([2]; 1 month-<6 months) was 3.133 L/kg and the “CL, Predicted Typical Value” ([2]; 2 y-<6 y) was 14.01 L/h. The “Volume … Predicted Typical Value” ([2]; 2 y-<6 y) was 28.09 L, the “Weight-Adjusted CL, Predicted Typical Value” ([2]; 2 y-<6 y) was 16.98 mL/min/kg and the “Weight-Adjusted V, Predicted Typical Value” ([2]; 2 y-<6 y) was 2.043 L/kg. For the same compound, the “CL, Predicted Typical Value” ([2]; 6 months-<12 months) was 8.69 L/h, the “Volume … Predicted Typical Value” ([2]; 6 months-<12 months) was 19.95 L and the “Weight-Adjusted CL, Predicted Typical Value” ([2]; 6 months-<12 months) was 19.92 mL/min/kg. The “Weight-Adjusted V, Predicted Typical Value” ([2]; 6 months-<12 months) was 2.742 L/kg, the “CL, Predicted Typical Value” ([2]; 6 y-<17 y) was 25.27 L/h and the “Volume … Predicted Typical Value” ([2]; 6 y-<17 y) was 52.97 L. For the same compound, the “Weight-Adjusted CL, Predicted Typical Value” ([2]; 6 y-<17 y) was 14 mL/min/kg, the “Weight-Adjusted V, Predicted Typical Value” ([2]; 6 y-<17 y) was 1.754 L/kg and the “CL, Predicted Typical Value” ([2]; 12 months-<24 months) was 11.12 L/h. The “Volume … Predicted Typical Value” ([2]; 12 months-<24 months) was 23.85 L, the “Weight-Adjusted CL, Predicted Typical Value” ([2]; 12 months-<24 months) was 18.35 mL/min/kg and the “Weight-Adjusted V, Predicted Typical Value” ([2]; 12 months-<24 months) was 2.361 L/kg. The “CL, Predicted Typical Value” ([2]; 28 weeks GA-<1 month) was 2.69 L/h, the “Volume … Predicted Typical Value” ([2]; 28 weeks GA-<1 month) was 16.21 L and the “Weight-Adjusted CL, Predicted Typical Value” ([2]; 28 weeks GA-<1 month) was 15.6 mL/min/kg. The “Weight-Adjusted V, Predicted Typical Value” ([2]; 28 weeks GA-<1 month) was 5.618 L/kg.
